For orientation: IC50 means the point on the concentration scale where inhibition reaches its midpoint.

This assay relates to NCI-H358. The experiment in a line: Antiproliferative activity against human NCI-H358 cells assessed as inhibition of cell proliferation incubated for 7 days by celltiter-glo 3D assay. Type of assay: functional, cell-based. The conditions noted are these: NCI-H358, 168 h. (In general: In ATP-based viability assays light output follows the ATP content of the culture.)
Take `COc1cc2nc(C)nc(N[C@H](C)c3cc(N)cc(C(F)(F)F)c3)c2cc1OCC1(CN(C)C(=O)CCOCCOCCNc2cccc3c2C(=O)N(C2CCC(=O)NC2=O)C3=O)CC1` (some centres undefined): the concentration for half-maximal inhibition (IC50) was 0.421 µM.

Take `COc1cc2nc(C)nc(N[C@H](C)c3cc(N)cc(C(F)(F)F)c3)c2cc1OCC1(CN(C)C(=O)CCCCCCOc2cccc3c2C(=O)N(C2CCC(=O)NC2=O)C3=O)CC1` (some centres undefined): the IC50 stood at 0.075 µM.

For the compound `COc1cc2nc(C)nc(N[C@H](C)c3cc(N)cc(C(F)(F)F)c3)c2cc1OCC1(CN(C)C(=O)COCCCCNc2cccc3c2C(=O)N(C2CCC(=O)NC2=O)C3=O)CC1` (some centres undefined), the IC50 was found to be 0.114 µM.

In the case of `COc1cc2nc(C)nc(N[C@H](C)c3cc(N)cc(C(F)(F)F)c3)c2cc1OCC1(CN(C)C(=O)CCCCCNc2cccc3c2C(=O)N(C2CCC(=O)NC2=O)C3=O)CC1` (some centres undefined), the half-inhibitory concentration (IC50) was 0.334 µM.

As to `COc1cc2nc(C)nc(N[C@H](C)c3cc(N)cc(C(F)(F)F)c3)c2cc1OCC1(CN(C)C(=O)C2CCN(C3CCN(c4ccc5c(c4)C(=O)N(C4CCC(=O)NC4=O)C5=O)CC3)CC2)CC1` (some centres undefined), the IC50 was 0.684 µM.

As for `COc1cc2nc(C)nc(N[C@H](C)c3cc(N)cc(C(F)(F)F)c3)c2cc1OCC1(CN(C)C(=O)C2CCC(N3CCN(c4ccc5c(c4)C(=O)N(C4CCC(=O)NC4=O)C5=O)CC3)CC2)CC1` (some centres undefined), the half-maximal inhibitory concentration (IC50) turned out to be 1.37 µM.

In the case of `COc1cc2nc(C)nc(N[C@H](C)c3cc(N)cc(C(F)(F)F)c3)c2cc1OCC1(CN(C)C(=O)CCC(=O)N(C)C2CCC(Nc3cccc4c3C(=O)N(C3CCC(=O)NC3=O)C4=O)CC2)CC1` (some centres undefined), the IC50 was found to be 0.927 µM.

In the case of `COc1cc2nc(C)nc(N[C@H](C)c3cc(N)cc(C(F)(F)F)c3)c2cc1OCC1(CN(C)C(=O)CCCCCC#Cc2cccc3c2C(=O)N(C2CCC(=O)NC2=O)C3=O)CC1` (some centres undefined), the IC50 worked out at 0.591 µM.

On to `COc1cc2nc(C)nc(N[C@H](C)c3cccc(C#N)c3C)c2cc1OCC1(CN(C)C(=O)CCCCCCNc2cccc3c2C(=O)N(C2CCC(=O)NC2=O)C3=O)CC1` (some centres undefined), for which the half-maximal inhibitory concentration (IC50) was found to be 2.05 µM.

Consider `COc1cc2nc(C)nc(N[C@H](C)c3cc(N)cc(C(F)(F)F)c3)c2cc1OCC1(CN(C)C(=O)CN2CCC(OC3CCN(c4ccc5c(c4)C(=O)N(C4CCC(=O)NC4=O)C5=O)CC3)CC2)CC1` (some centres undefined), for which the IC50 turned out to be 0.814 µM.

As to `COc1cc2nc(C)nc(N[C@H](C)c3cc(N)cc(C(F)(F)F)c3)c2cc1OCC1(CN(C)C(=O)CCCCNc2cccc3c2C(=O)N(C2CCC(=O)NC2=O)C3=O)CC1` (some centres undefined), the half-maximal inhibitory concentration (IC50) is 0.086 µM.

With `COc1cc2nc(C)nc(N[C@H](C)c3cc(N)cc(C(F)(F)F)c3)c2cc1OCC1(CN(C)C(=O)CCOCCC#Cc2cccc3c2C(=O)N(C2CCC(=O)NC2=O)C3=O)CC1` (some centres undefined), the half-inhibitory concentration (IC50) was found to be 1.14 µM.

As to `COc1cc2nc(C)nc(N[C@H](C)c3cc(N)cc(C(F)(F)F)c3)c2cc1OCC1(CN(C)C(=O)CCCCCCNc2nccc3c2C(=O)N(C2CCC(=O)NC2=O)C3=O)CC1` (some centres undefined), the 50% inhibitory concentration (IC50) was 0.318 µM.

Take `COc1cc2nc(C)nc(N[C@H](C)c3cccc(C(F)(F)C(C)(C)O)c3F)c2cc1OCC1(CN(C)C(=O)CCCCCCNc2cccc3c2C(=O)N(C2CCC(=O)NC2=O)C3=O)CC1` (some centres undefined): the IC50 was found to be 0.358 µM.

As to `COc1cc2nc(C)nc(N[C@H](C)c3cc(N)cc(C(F)(F)F)c3)c2cc1OCC1(CN(C)C(=O)CN2CCC(CN3CCN(c4ccc5c(c4)C(=O)N(C4CCC(=O)NC4=O)C5=O)CC3)CC2)CC1` (some centres undefined), the IC50 amounted to 1.08 µM.

Turning to `COc1cc2nc(C)nc(N[C@H](C)c3cc(N)cc(C(F)(F)F)c3)c2cc1OCC1(CN(C)C(=O)CCCOCCNc2cccc3c2C(=O)N(C2CCC(=O)NC2=O)C3=O)CC1` (some centres undefined), the IC50 came out at 0.07 µM.

On to `COc1cc2nc(C)nc(N[C@H](C)c3cc(N)cc(C(F)(F)F)c3)c2cc1OCC1(CN(C)C(=O)CCCCCCNc2ccc3c(c2)C(=O)N(C2CCC(=O)NC2=O)C3=O)CC1` (some centres undefined), for which the IC50 was determined as 0.799 µM.

Turning to `COc1cc2nc(C)nc(N[C@H](C)c3cc(N)cc(C(F)(F)F)c3)c2cc1OCC1(CN(C)C(=O)COCCNc2cccc3c2C(=O)N(C2CCC(=O)NC2=O)C3=O)CC1` (some centres undefined), the IC50 came to 1.38 µM.

Regarding `COc1cc2nc(C)nc(N[C@H](C)c3cc(N)cc(C(F)(F)F)c3)c2cc1OCC1(CN(C)C(=O)CN2CCN(C3CCN(c4ccc5c(c4)C(=O)N(C4CCC(=O)NC4=O)C5=O)CC3)CC2)CC1` (some centres undefined), the IC50 turned out to be 0.928 µM.
